Values of other authors as cited in patent publication US20140187520A1, “STABLE INJECTABLE PHARMACEUTICAL COMPOSITION OF VITAMIN D RECEPTOR AGONIST AND PROCESS FOR PREPARATION THEREOF” (PHARMATHEN S.A., priority 2012, published 2014).

solubility in alcohol (alcohol): soluble
solubility in water (water): insoluble
SMILES: C[C@H](/C=C/[C@H](C)C(C)(C)O)[C@H]1CC[C@H]2/C(=C/C=C3C[C@@H](O)C[C@H](O)C3)CCC[C@]12C [paricalcitol, 19-nor-1α,3β,25-trihydroxy-9,10-secoergosta-5(Z),7(E), 22(E)-triene]
